Assay results from patent US9995734B2, “Human T cell line assay for evaluating the immunologic identity of glatiramer acetate preparations” (Mylan Inc., priority 2013, dated 2018).
Several values for one entry are separate records, joined by “and”; a condition that tells them apart may be missing. Equal entries are not always repeated.

Tested on: Donor 1 COP T-Cell Lines
Experiment: Multiplex bead cytokine assay (FlowCytoMix), Donor 1 COP T-cell lines
Type: cell-based, human
Details: MBP control antigen, 24 hours after Day 56 restimulation
Experimental: Culture medium was removed from cultures prepared as for proliferation assay and utilized to measure cytokine production. In most cases culture medium was collected 18-24 hours after mixing T-cells, APC, and stimulating antigen. Cytokine production was measured by ELISA or bead assay. For measuring cytokine production, 100-150 μL culture medium (100 μL if culture was to be continued, otherwise 150 μL) was removed from each well. In some cases, the culture was continued 48 hours, for a total of 72 hours of culture, and the proliferative response measured.
The concentration of multiple cytokines was measured simultaneously using FlowCytoMix™ kits (eBioscience, San Diego Calif.). These are fluorescent bead based assays consisting of beads conjugated to anti cytokine antibodies. Beads specific for each cytokine are distinguished by size and fluorescence at 670 run. Cytokine bound to each bead is detected using a phycoerythrin conjugated antibody so that the fluorescence at 585 nm reflects the concentration of cytokine in the sample. Two kits were utilized which measured different cytokine panels. The TH1/TH2 kit measures IFN-γ, IL-1β, IL-2, IL-4, IL-5, IL-6, IL-8, IL-10, IL-12p70, TNF-α (TNF) and TNF-β (LT). The TH1/TH2/TH9/TH17/TH22 kit measures […], IL-1β, IL-2, IL-4, IL-5, IL-6, IL-9, IL-10, IL-12p70, IL-13, IL-17, IL-22, and TNF-α (TNF). Both kits were used following the manufacturer's instructions.
IL-12p70, IFN-γ, IL-2, IL-10, IL-8, IL-6, IL-5, IL-4, IL-1β, TNF-α (TNF), and TNF-β (LT) secretion were measured in response to stimulation with 1, 3, or 10 μg/mL GMA, or 1, 3, or 10 μg/mL COP, as well as a no-antigen control and an MBP control, in the presence of autologous EBV-transformed B-LCL.

FFKNIVTPRTPPPSQGK [MBP] showed an IFN-γ (222-1C5) of 64 pg/mL, an IL-2 (222-1C5) of 0 pg/mL and an IL-5 (222-1C5) of 0 pg/mL. For the same sequence, the IL-10 (222-1C5) was 0 pg/mL, the IL-13 (222-1C5) was 82 pg/mL and the IL-22 (222-1C5) was 36 pg/mL. For the same sequence, the TNF-α (222-1C5) was 9 pg/mL, the IFN-γ (222-2B8) was 0 pg/mL and the IL-2 (222-2B8) was 0 pg/mL. It also gave an IL-5 (222-2B8) of 0 pg/mL, an IL-10 (222-2B8) of 0 pg/mL and an IL-13 (222-2B8) of 26.77 pg/mL. It also gave an IL-22 (222-2B8) of 20.62 pg/mL, a TNF-α (222-2B8) of 0 pg/mL and an IFN-γ (222-2E1) of 20.69 pg/mL. The IL-2 (222-2E1) was 42.43 pg/mL, the IL-5 (222-2E1) was 0 pg/mL and the IL-10 (222-2E1) was 2.28 pg/mL and 2.3 pg/mL. For the same sequence, the IL-13 (222-2E1) was 51.1 pg/mL, the IL-22 (222-2E1) was 107.54 pg/mL and the TNF-α (222-2E1) was 13.51 pg/mL. It also gave an IFN-γ (222-B11 (so in the source)) of 0 pg/mL, an IL-2 (222-B11 (so in the source)) of 0 pg/mL and an IL-5 (222-B11 (so in the source)) of 0 pg/mL. The IL-10 (222-B11 (so in the source)) was 0 pg/mL, the IL-13 (222-B11 (so in the source)) was 0.83 pg/mL and the IL-22 (222-B11 (so in the source)) was 0 pg/mL. For the same sequence, the TNF-α (222-B11 (so in the source)) was 0 pg/mL.
